This passage reports Kd results from patent publication US11028079B2 (ConverGene LLC, priority 2015, dated 2021).

Structures are written as SMILES. pKd: −log10 of the molar value.

The target in this test is T1, BRD4 bromodomains (Homo sapiens, UniProt O60885).
T1 construct: fused on or other part: T7 phage capsid protein (phage-display fusion; the phage DNA is read out by qPCR)
Description: BROMOscan bromodomain competition binding assay (DiscoveRx). The conditions noted are these: Kd from 11 compound concentrations ranging from 0 to 10 μM, read-out: BROMOscan Relative Activity. The method, boiled down: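 Compounds in 0.1% DMSO/0.9% MEG competed with a solid-phase acetylated peptide for T7 phage-fused BRD4 bromodomains, with the retained bromodomain measured by qPCR.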
In the case of `Cc1noc(C)c1-c1ccc2nc(C(=O)N3CCc4[nH]ncc4C3)cc(NCc3cccc(Cl)c3)c2c1` [Example 288, (4-((3-chlorobenzyl)amino)-6-(3,5-dimethylisoxazol-4-yl)quinolin-2-yl)(1,4,6,7-tetrahydro-5H-pyrazolo[4,3-c]pyridin-5-yl)methanone], the pKd is 5.30 to 6.30. In the case of `Cc1noc(C)c1-c1ccc2nc(N3CCc4c(cnn4C)C3)nc(N3CCOC[C@@H]3c3ccccc3)c2c1` [Example 289, (S)-4-(6-(3,5-dimethylisoxazol-4-yl)-2-(1-methyl-1,4,6,7-tetrahydro-5H-pyrazolo[4,3-c]pyridin-5-yl)quinazolin-4-yl)-3-phenylmorpholine] it was above 6.30. In the case of `Cc1noc(C)c1-c1ccc2nc(N3CCc4[nH]ncc4C3)nc(NCc3cccc(Cl)c3)c2c1` [Example 290, N-(3-chlorobenzyl)-6-(3,5-dimethylisoxazol-4-yl)-2-(1,4,6,7-tetrahydro-5H-pyrazolo[4,3-c]pyridin-5-yl)quinazolin-4-amine], the pKd was 5.30 to 6.30. The result for `Cc1noc(C)c1-c1ccc2nc(-c3cnn(CC(C)(C)O)c3)nc(N3CCNC[C@@H]3c3ccccc3)c2c1` [Example 291, (S)-1-(4-(6-(3,5-dimethylisoxazol-4-yl)-4-(2-phenylpiperazin-1-yl)quinazolin-2-yl)-1H-pyrazol-1-yl)-2-methylpropan-2-ol] reads above 6.30. The result for `Cn1cc(-c2ccc3nc(-c4cnn(CC(C)(C)O)c4)nc(N4CCOC[C@@H]4c4ccccc4)c3c2)ccc1=O` [Example 292, (S)-5-(2-(1-(2-hydroxy-2-methylpropyl)-1H-pyrazol-4-yl)-4-(3-phenylmorpholino)quinazolin-6-yl)-1-methylpyridin-2(1H)-one] reads above 6.30; that for `Cc1noc(C)c1-c1ccc2nc(N3CCN(C)CC3)nc(N3CCOC[C@@H]3c3ccccc3)c2c1` [Example 293, (S)-4-(6-(3,5-dimethylisoxazol-4-yl)-2-(4-methylpiperazin-1-yl)quinazolin-4-yl)-3-phenylmorpholine], above 6.30.

Consider `CC(=O)N1CCN(c2nc(N3CCOC[C@@H]3c3ccccc3)c3cc(-c4c(C)noc4C)ccc3n2)CC1` [Example 294, (S)-1-(4-(6-(3,5-dimethylisoxazol-4-yl)-4-(3-phenylmorpholino)quinazolin-2-yl)piperazin-1-yl)ethan-1-one], for which the pKd was above 6.30. `Cc1noc(C)c1-c1ccc2nc(N3CCN(CC(C)(C)O)CC3)nc(N3CCOC[C@@H]3c3ccccc3)c2c1` [Example 295, (S)-1-(4-(6-(3,5-dimethylisoxazol-4-yl)-4-(3-phenylmorpholino)quinazolin-2-yl)piperazin-1-yl)-2-methylpropan-2-ol]: the pKd is above 6.30.

Regarding `CNC(=O)C1CCN(c2nc(N3CCOC[C@@H]3c3ccccc3)c3cc(-c4c(C)noc4C)ccc3n2)CC1` [Example 296, (S)-1-(6-(3,5-dimethylisoxazol-4-yl)-4-(3-phenylmorpholino)quinazolin-2-yl)-N-methylpiperidine-4-carboxamide], the pKd was above 6.30.

`Cc1noc(C)c1-c1ccc2nc(-c3cnn(CC(N)=O)c3)nc(N3CCOC[C@@H]3c3ccccc3)c2c1` [Example 297, (S)-2-(4-(6-(3,5-dimethylisoxazol-4-yl)-4-(3-phenylmorpholino)quinazolin-2-yl)-1H-pyrazol-1-yl)acetamide]: the pKd is above 6.30. The result for `CNC(=O)CN1CCN(c2nc(N3CCOC[C@@H]3c3ccccc3)c3cc(-c4c(C)noc4C)ccc3n2)CC1` [Example 298] reads above 6.30; that for `CCNC(=O)N1CCN(c2nc(N3CCOC[C@@H]3c3ccccc3)c3cc(-c4c(C)noc4C)ccc3n2)CC1` [Example 299, (S)-4-(6-(3,5-dimethylisoxazol-4-yl)-4-(3-phenylmorpholino)quinazolin-2-yl)-N-ethylpiperazine-1-carboxamide], above 6.30. Regarding `Cc1noc(C)c1-c1ccc2nc(N3CCN(C(=O)c4cnn(C)c4)CC3)nc(N3CCOC[C@@H]3c3ccccc3)c2c1` [Example 300, (S)-(4-(6-(3,5-dimethylisoxazol-4-yl)-4-(3-phenylmorpholino)quinazolin-2-yl)piperazin-1-yl)(1-methyl-1H-pyrazol-4-yl)methanone], the pKd is above 6.30.

With `Cc1noc(C)c1-c1ccc2nc(-c3cnn(CC(=O)N(C)C)c3)nc(N3CCOC[C@@H]3c3ccccc3)c2c1` [Example 301, (S)-2-(4-(6-(3,5-dimethylisoxazol-4-yl)-4-(3-phenylmorpholino)quinazolin-2-yl)-1H-pyrazol-1-yl)-N,N-dimethylacetamide], the pKd was above 6.30. The result for `Cc1noc(C)c1-c1ccc2nc(-c3cnn(CS(C)(=O)=O)c3)nc(N3CCOC[C@@H]3c3ccccc3)c2c1` [Example 302, (S)-4-(6-(3,5-dimethylisoxazol-4-yl)-2-(1-((methylsulfonyl)methyl)-1H-pyrazol-4-yl)quinazolin-4-yl)-3-phenylmorpholine] reads above 6.30; that for `Cc1noc(C)c1-c1ccc2nc(N3CCN(CC(=O)N(C)C)CC3)nc(N3CCOC[C@@H]3c3ccccc3)c2c1` [Example 303, (S)-2-(4-(6-(3,5-dimethylisoxazol-4-yl)-4-(3-phenylmorpholino)quinazolin-2-yl)piperazin-1-yl)-N,N-dimethylacetamide], above 6.30; that for `Cc1noc(C)c1-c1ccc2nc(-c3cnn(C(C)(C)CO)c3)nc(N3CCOC[C@@H]3c3ccccc3)c2c1` [Example 304, (S)-2-(4-(6-(3,5-dimethylisoxazol-4-yl)-4-(3-phenylmorpholino)quinazolin-2-yl)-1H-pyrazol-1-yl)-2-methylpropan-1-ol], above 6.30.

Turning to `Cc1noc(C)c1-c1ccc2nc(N3CCN(C(=O)CO)CC3)nc(N3CCOC[C@@H]3c3ccccc3)c2c1` [Example 305, (S)-1-(4-(6-(3,5-dimethylisoxazol-4-yl)-4-(3-phenylmorpholino)quinazolin-2-yl)piperazin-1-yl)-2-hydroxyethan-1-one], the pKd is above 6.30. For the compound `Cc1noc(C)c1-c1ccc2nc(-c3cnn(CCO)c3)nc(N3CCOC[C@@H]3c3ccccc3)c2c1` [Example 306, (S)-2-(4-(6-(3,5-dimethylisoxazol-4-yl)-4-(3-phenylmorpholino)quinazolin-2-yl)-1H-pyrazol-1-yl)ethan-1-ol], the pKd is above 6.30.

Consider `Cc1noc(C)c1-c1ccc2nc(N3CCN(CC(N)=O)CC3)nc(N3CCOC[C@@H]3c3ccccc3)c2c1` [Example 307, (S)-2-(4-(6-(3,5-dimethylisoxazol-4-yl)-4-(3-phenylmorpholino)quinazolin-2-yl)piperazin-1-yl)acetamide], for which the pKd was above 6.30. The result for `Cc1noc(C)c1-c1ccc2nc(N3CCN(C[C@H](C)O)CC3)nc(N3CCOC[C@@H]3c3ccccc3)c2c1` [Example 308, (S)-1-(4-(6-(3,5-dimethylisoxazol-4-yl)-4-((S)-3-phenylmorpholino)quinazolin-2-yl)piperazin-1-yl)propan-2-ol] reads above 6.30; that for `CC(=O)N1CCN(c2nc(-c3cnn(CC(C)(C)O)c3)nc3ccc(-c4c(C)noc4C)cc23)[C@@H](c2ccccc2)C1` [Example 309, (S)-1-(4-(6-(3,5-dimethylisoxazol-4-yl)-2-(1-(2-hydroxy-2-methylpropyl)-1H-pyrazol-4-yl)quinazolin-4-yl)-3-phenylpiperazin-1-yl)ethan-1-one], above 6.30.

Regarding `Cc1noc(C)c1-c1ccc2nc(-c3cnn(CC(C)(C)O)c3)nc(N3CCN(S(C)(=O)=O)C[C@@H]3c3ccccc3)c2c1` [Example 310, (S)-1-(4-(6-(3,5-dimethylisoxazol-4-yl)-4-(4-(methylsulfonyl)-2-phenylpiperazin-1-yl)quinazolin-2-yl)-1H-pyrazol-1-yl)-2-methylpropan-2-ol], the pKd is above 6.30. The result for `Cc1noc(C)c1-c1ccc2nc(N3CCc4ncn(C)c4C3)nc(N3CCOC[C@@H]3c3ccccc3)c2c1` [Example 311, (S)-4-(6-(3,5-dimethylisoxazol-4-yl)-2-(3-methyl-3,4,6,7-tetrahydro-5H-imidazo[4,5-c]pyridin-5-yl)quinazolin-4-yl)-3-phenylmorpholine] reads above 6.30. Consider `Cc1noc(C)c1-c1ccc2nc(-c3cnn(CC(C)(C)O)c3)nc(N(Cc3cccc(Cl)c3)C3CC3)c2c1` [Example 312, 1-(4-(4-((3-chlorobenzyl)(cyclopropyl)amino)-6-(3,5-dimethylisoxazol-4-yl)quinazolin-2-yl)-1H-pyrazol-1-yl)-2-methylpropan-2-ol], for which the pKd is above 6.30.

Regarding `Cc1noc(C)c1-c1ccc2nc(N3CCC4(CC3)CC(O)C4)nc(N3CCOC[C@@H]3c3ccccc3)c2c1` [Example 313, (S)-7-(6-(3,5-dimethylisoxazol-4-yl)-4-(3-phenylmorpholino)quinazolin-2-yl)-7-azaspiro 13.51 nonan-2-ol], the pKd was above 6.30.

Turning to `Cc1noc(C)c1-c1ccc2nc(N3CCC4(CCC(=O)N4)CC3)nc(N3CCOC[C@@H]3c3ccccc3)c2c1` [Example 314, (S)-8-(6-(3,5-dimethylisoxazol-4-yl)-4-(3-phenylmorpholino)quinazolin-2-yl)-1,8-diazaspiro[4.5]decan-2-one], the pKd was above 6.30.

For the compound `Cc1noc(C)c1-c1ccc2nc(C(=O)NC3CS(=O)(=O)C3)nc(N3CCOC[C@@H]3c3ccccc3)c2c1` [Example 315, (S)-6-(3,5-dimethylisoxazol-4-yl)-N-(1,1-dioxidothietan-3-yl)-4-(3-phenylmorpholino)quinazoline-2-carboxamide], the pKd was above 6.30. The result for `Cc1noc(C)c1-c1ccc2nc(C(=O)N3CCC4(CC3)CC(O)C4)nc(N3CCOC[C@@H]3c3ccccc3)c2c1` [Example 316, (S)-(6-(3,5-dimethylisoxazol-4-yl)-4-(3-phenylmorpholino)quinazolin-2-yl)(2-hydroxy-7-azaspiro[3.5]nonan-7-yl)methanone] reads 5.30 to 6.30.
